Measured values taken from ChEMBL document CHEMBL1201862, “PubChem BioAssay data set” (2004).
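Grown in 96-well plates, cells were treated for 48 hours with each compound at five concentrations. Insufficient inhibition: endpoint recorded as highest concentration tested. GI50 = concentration required for 50% inhibition of growth.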 Active and inactive are the calls of the source. Cut-off read from the data, not from the text of the source: active = GI50 up to about 1.1 µM and inactive = higher.

Key:
Test in all cases: inhibition of tumour cell growth, NCI panel, 48 h
[1] = system: SN12C
[2] = system: MDA-MB-435
[3] = system: Hs-578T
[4] = system: RXF 393
[5] = system: KM12
[6] = system: SK-MEL-2
[7] = system: MCF7
[8] = system: CCRF-CEM
[9] = system: BT-549
[10] = system: K562
[11] = system: ACHN
[12] = system: DU-145
[13] = system: M14
[14] = system: SK-MEL-28
[15] = system: HCT-116
[16] = system: TK-10
[17] = system: RPMI-8226
[18] = system: HT-29
[19] = system: PC-3
[20] = system: OVCAR-3

SMILES	GI50 [1]	GI50 [2]	GI50 [3]	GI50 [4]	GI50 [5]	GI50 [6]	GI50 [7]	GI50 [8]	GI50 [9]	GI50 [10]	GI50 [11]	GI50 [12]	GI50 [13]	GI50 [14]	GI50 [15]	GI50 [16]	GI50 [17]	GI50 [18]	GI50 [19]	GI50 [20]
O=[N+]([O-])c1ccc(/C(=C\c2ccccc2)Cn2ccnc2)cc1	35 µM (inactive)	34.4 µM (inactive)	29.1 µM (inactive)	31.6 µM (inactive)	33 µM (inactive)	22.9 µM (inactive)	19.9 µM (inactive)	28 µM (inactive)	25.6 µM (inactive)	17.8 µM (inactive)	29.8 µM (inactive)	60 µM (inactive)	36.9 µM (inactive)	59.6 µM (inactive)	23.6 µM (inactive)	32.7 µM (inactive)	28.9 µM (inactive)	14 µM (inactive)	24.8 µM (inactive)	–
Cn1c(=O)cc(NNc2ccc(Cl)c(Cl)c2)[nH]c1=O	4.34 µM (inactive)	3.31 µM (inactive)	20.4 µM (inactive)	22.9 µM (inactive)	12.3 µM (inactive)	16.4 µM (inactive)	6.41 µM (inactive)	13.1 µM (inactive)	16 µM (inactive)	2.04 µM (inactive)	5.46 µM (inactive)	17.5 µM (inactive)	5.25 µM (inactive)	11.5 µM (inactive)	7.19 µM (inactive)	16.7 µM (inactive)	> 10 µM (inactive)	18 µM (inactive)	12.6 µM (inactive)	15.5 µM (inactive)
CC1(COS(=O)(=O)OCC2(C)COS(=O)(=O)OC2)COS(=O)(=O)OC1	–	> 41.2 µM (inactive)	> 100 µM (inactive)	> 64.7 µM (inactive)	> 32.7 µM (inactive)	> 55.6 µM (inactive)	> 22.3 µM (inactive)	> 28.2 µM (inactive)	> 48.8 µM (inactive)	> 26.2 µM (inactive)	> 32.3 µM (inactive)	> 36.5 µM (inactive)	> 51.4 µM (inactive)	> 100 µM (inactive)	> 52.6 µM (inactive)	> 74.8 µM (inactive)	> 20.2 µM (inactive)	> 32.6 µM (inactive)	> 29.6 µM (inactive)	> 100 µM (inactive)
CC(C)(C)C1CCC2c3c([nH]c4ccccc34)C3C(=O)N(c4ccc(C#N)cc4)C(=O)C3C2C1 (stereo unspecified)	9.59 µM (inactive)	26.3 µM (inactive)	11.2 µM (inactive)	3.21 µM (inactive)	–	13.1 µM (inactive)	29.5 µM (inactive)	0.0108 µM (active)	15.7 µM (inactive)	6.22 µM (inactive)	15.1 µM (inactive)	13.6 µM (inactive)	16.1 µM (inactive)	14 µM (inactive)	5.43 µM (inactive)	20.3 µM (inactive)	21.3 µM (inactive)	3.78 µM (inactive)	3.66 µM (inactive)	16.4 µM (inactive)
COc1ccc(N2C=Nn3c(nc4sc(C)c(C)c4c3=O)C2)cc1	> 100 µM (inactive)	> 100 µM (inactive)	> 100 µM (inactive)	53.3 µM (inactive)	> 100 µM (inactive)	> 100 µM (inactive)	> 100 µM (inactive)	> 100 µM (inactive)	> 100 µM (inactive)	> 100 µM (inactive)	> 100 µM (inactive)	> 100 µM (inactive)	> 100 µM (inactive)	> 100 µM (inactive)	> 100 µM (inactive)	> 100 µM (inactive)	> 100 µM (inactive)	> 100 µM (inactive)	> 100 µM (inactive)	–
